# Reference: PMC12514245, “Impaired migration and lung invasion of human melanoma by a novel small molecule targeting the transmembrane domain of death receptor p75^NTR” (EMBO Molecular Medicine, 2025)
# Values joined by “and” are separate entries in the source; they are usually repeats but may differ in a detail not shown here. Equal values may be shown once.
# Experiments:
# A875 NT cells [1] = experiment: Boyden chamber chemotaxis/invasion assay, A875 NT; assay type: cell-based, human; conditions: for Fold change - invading cells, Mean / Fold change - invading cells, individual replicates: 1μM
# Experimental: For Boyden chamber assay, Corning® BioCoat™ Matrigel® Invasion Chambers 8.0 µm PET Membrane were used (cat. no. 354480). A875 NT or WM115 cells were serum-starved for 16 h and then seeded at 60,000 cells per well in serum-free media under different conditions, including DMSO (vehicle) or small molecules Div17E5 or Np75-4A22 at different concentrations to the top chamber of the Matrigel-coated trans-well chamber. The pan-caspase inhibitor Q_VD_poH (at 5 µM) was also introduced in the top chamber in some experiments. Two different chemoattractants, NGF (at 50 ng/ml or 100 ng/ml as indicated) or 10% FBS were added to the bottom chamber. Assays were carried out for 8 h after which filters were fixed in 4% PFA and stained with DAPI. Cells that had remained on the top of the filter were gently scrapped away with a cotton tip. The filter lower side was imaged on an inverted fluorescence microscope and counted using ImageJ software (NIH).
# A875 NT cells [2] = experiment: Wound healing cell motility assay, A875 NT; assay type: cell-based, human; conditions: A875 NT; for Fold (wound area): 0.75uM; for Wound area (Fold): 1uM
# Experimental: For wound healing assay, cells were grown until confluency and subjected to a wound across the cell mono-layer. Cells were then incubated with serum-free media either with DMSO or a small molecule (with or without 5 µM Q_VD_poH) and imaged at specific time-points. Cell migration is reflected as fold change in wound area over time.
compound,measurement,setting,value
Cc1cccc(-c2cncc(Nc3ccc(Br)c(Cl)c3Cl)n2)c1C [Np75-4A22],INVADING CELLS Average,"A875 NT cells [1]; 0.5μM, NGF (50 ng/ml)",217.00
same,INVADING CELLS Fold Average,"A875 NT cells [1]; 0.5μM, NGF (50 ng/ml)",1.60 Fold
same,INVADING CELLS Fold change,"A875 NT cells [1]; 0.5μM, NGF (50 ng/ml)",1.65 Fold and 1.68 Fold and 1.46 Fold
same,INVADING CELLS count,"A875 NT cells [1]; 0.5μM, NGF (50 ng/ml)",224 and 229 and 198
same,INVADING CELLS Average,"A875 NT cells [1]; 0.5μM, No NGF",115.33
same,INVADING CELLS Fold Average,"A875 NT cells [1]; 0.5μM, No NGF",0.85 Fold
same,INVADING CELLS Fold change,"A875 NT cells [1]; 0.5μM, No NGF",0.82 Fold and 0.92 Fold and 0.80 Fold
same,INVADING CELLS count,"A875 NT cells [1]; 0.5μM, No NGF",112 and 125 and 109
same,INVADING CELLS Average,"A875 NT cells [1]; 0.75μM, NGF (50 ng/ml)",161.00
same,INVADING CELLS Fold Average,"A875 NT cells [1]; 0.75μM, NGF (50 ng/ml)",1.18 Fold
same,INVADING CELLS Fold change,"A875 NT cells [1]; 0.75μM, NGF (50 ng/ml)",1.31 Fold and 1.11 Fold and 1.13 Fold
same,INVADING CELLS count,"A875 NT cells [1]; 0.75μM, NGF (50 ng/ml)",178 and 151 and 154
same,INVADING CELLS Average,"A875 NT cells [1]; 0.75μM, No NGF",131.00
same,INVADING CELLS Fold Average,"A875 NT cells [1]; 0.75μM, No NGF",0.96 Fold
same,INVADING CELLS Fold change,"A875 NT cells [1]; 0.75μM, No NGF",0.99 Fold and 1.01 Fold and 0.90 Fold
same,INVADING CELLS count,"A875 NT cells [1]; 0.75μM, No NGF",134 and 137 and 122
same,"Fold change - invading cells, Mean",A875 NT cells [1]; NGF,1.46
same,"Fold change - invading cells, individual replicates",A875 NT cells [1]; NGF,1.24 and 1.52 and 1.63
same,"Fold change - invading cells, Mean",A875 NT cells [1]; no NGF,0.96
same,"Fold change - invading cells, individual replicates",A875 NT cells [1]; no NGF,1.22 and 0.88 and 0.78
same,NGF activity in Boyden chamber assay of cell chemotaxis,"A875 NT cells [1]; 1 μM, NGF 50 ng/ml",blocked all NGF activity
same,NGF-induced A875 chemotaxis,"A875 NT cells [1]; submicromolar concentrations, NGF 50 ng/ml",significantly reducing
same,Fold (wound area),"A875 NT cells [2]; 0 h, Average",1.000 Fold
same,Fold (wound area),"A875 NT cells [2]; 0 h, n1",1.000 Fold
same,Fold (wound area),"A875 NT cells [2]; 0 h, n2",1.000 Fold
same,Fold (wound area),"A875 NT cells [2]; 0 h, n3",1.000 Fold
same,Fold (wound area),"A875 NT cells [2]; 3 h, Average",0.916 Fold
same,Fold (wound area),"A875 NT cells [2]; 3 h, n1",0.908 Fold
same,Fold (wound area),"A875 NT cells [2]; 3 h, n2",0.920 Fold
same,Fold (wound area),"A875 NT cells [2]; 3 h, n3",0.920 Fold
same,Fold (wound area),"A875 NT cells [2]; 6 h, Average",0.871 Fold
same,Fold (wound area),"A875 NT cells [2]; 6 h, n1",0.867 Fold
same,Fold (wound area),"A875 NT cells [2]; 6 h, n2",0.870 Fold
same,Fold (wound area),"A875 NT cells [2]; 6 h, n3",0.875 Fold
same,Fold (wound area),"A875 NT cells [2]; 9 h, Average",0.851 Fold
same,Fold (wound area),"A875 NT cells [2]; 9 h, n1",0.821 Fold
same,Fold (wound area),"A875 NT cells [2]; 9 h, n2",0.862 Fold
same,Fold (wound area),"A875 NT cells [2]; 9 h, n3",0.870 Fold
same,Fold (wound area),"A875 NT cells [2]; 12 h, Average",0.799 Fold
same,Fold (wound area),"A875 NT cells [2]; 12 h, n1",0.783 Fold
same,Fold (wound area),"A875 NT cells [2]; 12 h, n2",0.824 Fold
same,Fold (wound area),"A875 NT cells [2]; 12 h, n3",0.790 Fold
same,Fold (wound area),"A875 NT cells [2]; 15 h, Average",0.781 Fold
same,Fold (wound area),"A875 NT cells [2]; 15 h, n1",0.755 Fold
same,Fold (wound area),"A875 NT cells [2]; 15 h, n2",0.799 Fold
same,Fold (wound area),"A875 NT cells [2]; 15 h, n3",0.789 Fold
same,Fold (wound area),"A875 NT cells [2]; 18 h, Average",0.759 Fold
same,Fold (wound area),"A875 NT cells [2]; 18 h, n1",0.732 Fold
same,Fold (wound area),"A875 NT cells [2]; 18 h, n2",0.791 Fold
same,Fold (wound area),"A875 NT cells [2]; 18 h, n3",0.755 Fold
same,Fold (wound area),"A875 NT cells [2]; 21 h, Average",0.739 Fold
same,Fold (wound area),"A875 NT cells [2]; 21 h, n1",0.694 Fold
same,Fold (wound area),"A875 NT cells [2]; 21 h, n2",0.751 Fold
same,Fold (wound area),"A875 NT cells [2]; 21 h, n3",0.773 Fold
same,Fold (wound area),"A875 NT cells [2]; 24 h, Average",0.707 Fold
same,Fold (wound area),"A875 NT cells [2]; 24 h, n1",0.674 Fold
same,Fold (wound area),"A875 NT cells [2]; 24 h, n2",0.730 Fold
same,Fold (wound area),"A875 NT cells [2]; 24 h, n3",0.715 Fold
same,Wound area (Fold),"A875 NT cells [2]; 0 h, Mean",1.000 Fold
same,Wound area (Fold),"A875 NT cells [2]; 0 h, n1",0.9625 Fold
same,Wound area (Fold),"A875 NT cells [2]; 0 h, n2",0.9804 Fold
same,Wound area (Fold),"A875 NT cells [2]; 0 h, n3",1.057 Fold
same,Wound area (Fold),"A875 NT cells [2]; 3 h, Mean",0.967 Fold
same,Wound area (Fold),"A875 NT cells [2]; 3 h, n1",0.9475 Fold
same,Wound area (Fold),"A875 NT cells [2]; 3 h, n2",1.012 Fold
